The values that follow come from PubChem BioAssay (NCI).

What all share (assay): NCI-60 cell line screen, 48 h
For assay [1], the system named is OVCAR-3 ovarian.
Assay [2] has as its system SF-295 CNS.
Assay [3] relates to SK-MEL-2 melanoma.
Assay [4] deals with M14 melanoma.
Assay [5] deals with U251 CNS.
For assay [6], the system named is SR leukemia.
In assay [7] the test system is HCT-15 colon.
Assay [8] relates to IGROV1 ovarian.
Assay [9] concerns A498 renal.
Assay [10] has as its system SNB-75 CNS.

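Test compounds were applied to cells in 96-well plates for 48 hours at 5 doses. GI50 is the concentration that inhibits growth by half. TGI is the concentration that stops growth completely.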

On to `O=C(NCc1ccncc1)C12CC3CC(C1)CC(c1ccc(Cl)cc1)(C3)C2`, for which the GI50 in assay [1] is 13.2 µM; in [2], 12.7 µM; in assay [3], 14.2 µM; in assay [4], 12.7 µM; in assay [5] it was 14.2 µM; in assay [6], 7.98 µM. Besides, the GI50 in [7] is 12.1 µM; in assay [8] it was 13.3 µM; in assay [9], 7.85 µM; in [10], 13.2 µM. For the same compound, the TGI in [1] was 27.3 µM; in assay [2], 27.3 µM; in [3], 28.1 µM; in assay [4], 26.9 µM; in [5], 28.6 µM; in [6], 35.7 µM. Further, the TGI turned out to be 25.2 µM in assay [7], 29.3 µM in assay [8], 20.8 µM in [9] and 27.2 µM in [10].
Regarding `COc1ccc(-c2cc(-c3ccc(O)cc3)nc3n[nH]c(N)c23)cc1`, the GI50 is 13.5 µM in [1]; 18.5 µM in assay [2]; 16.4 µM in [3]; 21.3 µM in assay [4]; 18.6 µM in assay [5]; 24.1 µM in assay [6]. Also, the GI50 in assay [7] is 25.9 µM; in assay [8], 17 µM; in assay [9] it was 16.8 µM; in [10], 31.7 µM. In addition, the TGI was 31.7 µM in assay [1]; 51.9 µM in [2]; 35.1 µM in assay [3]; 43 µM in assay [4]; 46.7 µM in assay [5]; more than 100 µM in assay [6]. Besides, the TGI in assay [7] is 95 µM; in assay [8] it was 52.2 µM; in [9], 36.6 µM; in assay [10] it was more than 100 µM.
For `CNC(=O)Oc1cc(C)c(/C=C/c2cncc(C(=O)NC)c2)c(C)c1`, the GI50 in assay [1] is more than 25 µM; in [2] it was more than 25 µM; in [3], more than 25 µM; in assay [4], 16.8 µM; in assay [5] it was more than 25 µM; in [6] it was more than 20.4 µM. Also, the GI50 in assay [7] is more than 25 µM; in assay [8], more than 23.2 µM; in [9], more than 25 µM; in assay [10], 9.45 µM. Besides, the TGI in assay [1], in [2], in [3], in [4], in assay [5] and in [6] was more than 25 µM throughout. Also, the TGI in assay [7] was more than 25 µM; in assay [8] it was more than 25 µM; in assay [9], more than 25 µM; in assay [10], 24.6 µM.
Consider `Cc1cc(Oc2ccc3nc(COc4ccc(CC5SC(=O)NC5=O)cc4)n(C)c3c2)cc(C)c1N` (stereo not given), for which the GI50 in assay [1] was 28 µM; in assay [2], 32.5 µM; in [3] it was more than 49.4 µM; in assay [4], 29.6 µM; in [5], 32.2 µM; in [6] it was 31.7 µM. Further, the GI50 in assay [7] was 29.1 µM; in assay [8], more than 64.3 µM; in [9], more than 43.4 µM; in assay [10] it was 27.6 µM. Moreover, the TGI in [1] is more than 70.9 µM; in assay [2], more than 100 µM; in assay [3], more than 69.7 µM; in assay [4] it was more than 78.3 µM; in assay [5], more than 94 µM; in assay [6] it was more than 100 µM. The TGI in assay [7] was more than 87.8 µM; in assay [8], more than 100 µM; in assay [9] it was more than 100 µM; in assay [10] it was more than 72.7 µM.
Consider `Cc1cc(O)cc(C)c1/C=C/c1cncc(-c2nn[nH]n2)c1`, for which the GI50 in assay [1], in assay [2], in assay [3], in assay [4], in assay [5] and in [6] was more than 25 µM throughout. Moreover, the GI50 in assay [7], in assay [8], in assay [9] and in [10] was more than 25 µM in each case. Also, the TGI in assay [1], in assay [2], in [3], in assay [4], in assay [5] and in assay [6] was more than 25 µM each time. Besides, the TGI in assay [7], in assay [8], in [9] and in [10] was more than 25 µM each time.
Turning to `CCOC(=O)/C(=C(/C)NCC(C)C)c1cc(O)c(O)c2c(C)cc(=O)[nH]c12`, the GI50 in assay [1] is 3.16 µM; in [2], 4.46 µM; in assay [3], 5.92 µM; in assay [4], 4.53 µM; in assay [5], 8.68 µM; in [6], 4.02 µM. The GI50 in assay [7] is 2.2 µM; in assay [8], 9.21 µM; in assay [9], 8.31 µM; in assay [10], 3.85 µM. Further, the TGI in assay [1] is more than 100 µM; in [2] it was 48.1 µM; in assay [3], more than 100 µM; in assay [4] it was more than 100 µM; in assay [5] it was 50.9 µM; in assay [6] it was more than 100 µM. Moreover, the TGI is more than 100 µM in [7], more than 100 µM in assay [8], 29.7 µM in [9] and 29.8 µM in assay [10].
`COc1ccc(-c2c(-c3cc(OC)c(OC)c(OC)c3)noc2N)cc1`: the GI50 in [1] is less than 0.01 µM; in assay [2], less than 0.01 µM; in assay [3], 0.0188 µM; in [4], less than 0.01 µM; in assay [5], less than 0.0165 µM; in assay [6], less than 0.01 µM. The GI50 is less than 0.0115 µM in assay [7], 0.0202 µM in assay [8], less than 0.01 µM in [9] and less than 0.01 µM in [10]. The TGI was 0.0208 µM in assay [1]; more than 100 µM in assay [2]; 81.4 µM in assay [3]; more than 100 µM in [4]; 12.6 µM in [5]; 29.1 µM in assay [6]. Moreover, the TGI in assay [7] is more than 100 µM; in [8], 40.1 µM; in assay [9], 4.37 µM; in [10], 94.2 µM.
As for `Cc1nn(C)cc1P(=S)(c1ccccc1)c1ccccc1`, the TGI in [1], in assay [2], in [3], in assay [4], in [5] and in [6] was more than 100 µM throughout. Also, the TGI in assay [7] was more than 100 µM; in [8] it was more than 100 µM; in assay [9], more than 100 µM; in assay [10], 85.1 µM.
